Laboratory results: ChEMBL document CHEMBL1128021, “Potent and selective inhibitors of gelatinase-a 1. hydroxamic acid derivatives” (Bioorg Med Chem Lett, 1994)
pKi: −log10 of the molar value.

Experiments:
[1] = target: T1, Interstitial collagenase (Homo sapiens, UniProt P03956); assay: Inhibition of the collagenase enzyme.
T1 sequence (P03956 whole entry): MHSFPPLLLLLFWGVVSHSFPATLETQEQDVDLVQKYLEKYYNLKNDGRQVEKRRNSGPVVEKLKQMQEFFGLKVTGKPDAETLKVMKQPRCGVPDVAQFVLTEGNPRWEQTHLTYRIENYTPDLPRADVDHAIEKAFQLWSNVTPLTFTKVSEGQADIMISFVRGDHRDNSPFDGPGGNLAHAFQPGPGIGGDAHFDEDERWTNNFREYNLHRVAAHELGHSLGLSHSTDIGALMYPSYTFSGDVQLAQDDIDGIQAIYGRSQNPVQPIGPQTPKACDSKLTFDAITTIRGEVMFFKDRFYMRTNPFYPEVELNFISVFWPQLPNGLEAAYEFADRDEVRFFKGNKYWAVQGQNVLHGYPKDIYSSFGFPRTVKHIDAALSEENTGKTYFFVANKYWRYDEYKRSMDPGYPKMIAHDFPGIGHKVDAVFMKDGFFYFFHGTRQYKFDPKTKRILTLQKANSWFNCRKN

[2] = target: Stromelysin-1 (Homo sapiens, UniProt P08254); assay: Inhibition of the stromelysin enzyme.
[3] = target: 72 kDa type IV collagenase (Homo sapiens, UniProt P08253); assay: Inhibition of the gelatinase-A enzyme.
72 kDa type IV collagenase, sequence (P08253 whole entry): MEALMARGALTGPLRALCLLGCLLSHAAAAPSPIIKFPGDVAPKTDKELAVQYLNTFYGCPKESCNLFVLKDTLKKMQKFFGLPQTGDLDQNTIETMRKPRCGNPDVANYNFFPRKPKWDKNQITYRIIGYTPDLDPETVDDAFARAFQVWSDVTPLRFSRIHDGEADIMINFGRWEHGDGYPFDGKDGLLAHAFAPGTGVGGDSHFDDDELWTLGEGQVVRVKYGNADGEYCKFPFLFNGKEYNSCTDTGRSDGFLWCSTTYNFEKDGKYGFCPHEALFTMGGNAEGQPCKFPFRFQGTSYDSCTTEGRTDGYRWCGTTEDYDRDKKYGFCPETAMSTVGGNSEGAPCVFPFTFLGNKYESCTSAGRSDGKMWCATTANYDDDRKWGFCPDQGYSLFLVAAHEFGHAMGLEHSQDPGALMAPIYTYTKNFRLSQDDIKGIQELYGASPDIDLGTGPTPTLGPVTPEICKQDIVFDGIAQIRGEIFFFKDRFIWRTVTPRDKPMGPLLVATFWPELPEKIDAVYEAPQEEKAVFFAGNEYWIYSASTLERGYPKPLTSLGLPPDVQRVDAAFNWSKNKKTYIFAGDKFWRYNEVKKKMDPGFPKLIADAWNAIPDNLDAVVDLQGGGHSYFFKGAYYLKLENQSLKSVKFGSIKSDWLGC

Stromelysin-1, sequence (P08254 whole entry): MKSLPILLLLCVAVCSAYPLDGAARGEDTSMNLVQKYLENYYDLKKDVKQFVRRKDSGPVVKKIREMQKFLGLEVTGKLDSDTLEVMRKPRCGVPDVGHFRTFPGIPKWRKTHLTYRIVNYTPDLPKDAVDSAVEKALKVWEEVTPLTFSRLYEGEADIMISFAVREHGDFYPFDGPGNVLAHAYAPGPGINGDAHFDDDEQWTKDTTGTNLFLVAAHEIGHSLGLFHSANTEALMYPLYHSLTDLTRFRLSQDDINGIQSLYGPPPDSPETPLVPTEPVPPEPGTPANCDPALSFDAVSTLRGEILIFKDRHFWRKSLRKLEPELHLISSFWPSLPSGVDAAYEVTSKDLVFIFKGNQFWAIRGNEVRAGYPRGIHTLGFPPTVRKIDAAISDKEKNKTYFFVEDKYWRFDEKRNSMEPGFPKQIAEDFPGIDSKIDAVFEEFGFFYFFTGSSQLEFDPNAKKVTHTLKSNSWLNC

SMILES | pKi [1] | pKi [2] | pKi [3]
COc1ccc(CCC[C@H](CC(=O)NO)C(=O)N[C@@H](CC2CCCCC2)C(=O)NCCc2ccccc2)cc1 | 5.82 | 8.38 | 10.22
O=C(C[C@@H](CCCCc1ccccc1)C(=O)N[C@@H](CC1CCCCC1)C(=O)NCCc1ccccc1)NO | 5.60 | 6.75 | 9.60
O=C(C[C@@H](CCCc1ccccc1)C(=O)N[C@@H](CC1CCCCC1)C(=O)NCCc1ccccc1)NO | 6.69 | 8.08 | 10.21
O=C(C[C@@H](CCCC1CCCCC1)C(=O)N[C@@H](CC1CCCCC1)C(=O)NCCc1ccccc1)NO |  |  | 8.16
Cc1ccc(CCC[C@H](CC(=O)NO)C(=O)N[C@@H](CC2CCCCC2)C(=O)NCCN2CCOCC2)cc1 | 6.34 | 8.20 | 11.00
NS(=O)(=O)c1ccc(CCNC(=O)[C@H](CC2CCCCC2)NC(=O)[C@H](CCCc2ccc(Cl)cc2)CC(=O)NO)cc1 | 6.42 | 8.20 | 10.52
O=C(C[C@@H](CCCc1ccc(Cl)cc1)C(=O)N[C@@H](CC1CCCCC1)C(=O)NCCNS(=O)(=O)N1CCOCC1)NO |  |  | 11.00
CN(C)CCCCNC(=O)[C@H](CC1CCCCC1)NC(=O)[C@H](CCCc1ccc(Cl)cc1)CC(=O)NO | 5.98 | 7.65 | 10.30
Cc1ccc(CCC[C@H](CC(=O)NO)C(=O)N[C@@H](CC2CCCCC2)C(=O)NCCCCN(C)C)cc1 | 6.50 | 8.23 | 10.70
O=C(C[C@@H](CCCc1ccc(F)cc1)C(=O)N[C@@H](CC1CCCCC1)C(=O)NCCc1ccccc1)NO | 6.53 | 7.87 | 10.22
O=C(O)CCNC(=O)[C@H](CC1CCCCC1)NC(=O)[C@H](CCCc1ccc(Cl)cc1)CC(=O)NO | 6.71 | 9.10 | 11.00
COC(=O)CCNC(=O)[C@H](CC1CCCCC1)NC(=O)[C@H](CCCc1ccc(Cl)cc1)CC(=O)NO | 6.87 | 9.02 | 11.00
CC(C)C[C@H](CC(=O)NO)C(=O)N[C@@H](CC(C)C)C(=O)N[C@@H](Cc1ccccc1)C(N)=O | 6.52 | 6.90 | 
O=C(C[C@@H](CCCc1ccc(Cl)cc1)C(=O)N[C@@H](CC1CCCCC1)C(=O)NCCCCN1CCOCC1)NO | 6.50 | 8.62 | 10.52

Continued by rising pKi [3], values first:

pKi [1] | pKi [2] | pKi [3] | SMILES
< 5.00 | < 5.00 | 5.72 | O=C(C[C@@H](Cc1ccccc1)C(=O)N[C@@H](CC1CCCCC1)C(=O)NCCc1ccccc1)NO
6.21 | 7.11 | 8.65 | O=C(C[C@@H](CCc1ccccc1)C(=O)N[C@@H](CC1CCCCC1)C(=O)NCCc1ccccc1)NO
6.03 | 8.09 | 9.23 | O=C(C[C@@H](CCCc1ccccc1)C(=O)N[C@@H](CC1CCCCC1)C(=O)NCCc1ccc(S(=O)(=O)O)cc1)NO
8.11 | 7.60 | 9.48 | CC(C)C[C@H](CC(=O)NO)C(=O)N[C@@H](CC1CCCCC1)C(=O)NCCc1ccccc1
5.30 | 7.04 | 9.52 | O=C(C[C@@H](CCCc1ccc(C(F)(F)F)cc1)C(=O)N[C@@H](CC1CCCCC1)C(=O)NCCc1ccccc1)NO
5.29 | 8.26 | 10.00 | CCc1ccc(CCC[C@H](CC(=O)NO)C(=O)N[C@@H](CC2CCCCC2)C(=O)NCCc2ccccc2)cc1
6.04 | 8.08 | 10.10 | Cc1ccc(CCC[C@H](CC(=O)NO)C(=O)N[C@@H](CC2CCCCC2)C(=O)NCCc2ccccc2)cc1
 | 8.14 | 10.52 | O=C(C[C@@H](CCCc1ccc(Cl)cc1)C(=O)N[C@@H](CC1CCCCC1)C(=O)NCCc1ccccc1)NO
6.19 | 8.58 | 10.70 | Cc1ccc(CCC[C@H](CC(=O)NO)C(=O)N[C@@H](CC2CCCCC2)C(=O)NCCCCN2CCOCC2)cc1
6.50 | 8.86 | 10.70 | O=C(C[C@@H](CCCc1ccc(Cl)cc1)C(=O)N[C@@H](CC1CCCCC1)C(=O)NCCC(=O)N1CCOCC1)NO
 |  | 11.00 | Cc1ccc(CCC[C@H](CC(=O)NO)C(=O)N[C@@H](CC2CCCCC2)C(=O)NCCNS(=O)(=O)N2CCOCC2)cc1
6.48 | 8.53 | 11.00 | Cc1ccc(CCC[C@H](CC(=O)NO)C(=O)N[C@@H](CC2CCCCC2)C(=O)NCCc2ccc(S(N)(=O)=O)cc2)cc1
